Consider one compound from patent US20100013377A1, “Compounds for use in Opto-Electrical Devices” (CDT OXFORD LIMITED, priority 2006, published 2010).

For the data set the following is noted: in all of xylene, toluene, chlorobenzene, chloroform or tetrahydrofuran. The source says: By “solubilizing substituent” we mean a substituent which renders the triazine sufficiently soluble in organic solvents that it can be solution processed to fabricate an opto-electrical device by, for example, ink-jet printing or spin-coating. […] Organic solvents suitable for opto-electrical device fabrication include xylene, toluene, chlorobenzene, chloroform or tetrahydrofuran but preferably toluene or xylene.

`c1ccc(-c2ccc(-c3nc(-c4ccc(-c5ccccc5)cc4)nc(-c4ccc(-c5ccccc5)cc4)n3)cc2)cc1` [2,4,6-tris(biphenyl)-1,3,5-triazine]: the solubility (commonly how much of the substance goes into solution per volume) is less than 5000 µg/mL.
